Measured values: ChEMBL document CHEMBL1201862, “PubChem BioAssay data set” (2004)
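Results reflect a 48-hour exposure of cells in 96-well plates to compound at five concentrations. At the GI50, growth is halved.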 Activity calls are given as the source filed them. Cut-off read from the data, not from the text of the source: active = GI50 up to about 1.1 µM and inactive = higher.

Legend:
Assay in all cases: NCI anticancer screen, dose series, 48 h
HOP-62 = system: HOP-62
Hs-578T = system: Hs-578T
T47D = system: T47D
LOX IMVI = system: LOX IMVI
NCI-H460 = system: NCI-H460
A549 = system: A549
CCRF-CEM = system: CCRF-CEM
MOLT-4 = system: MOLT-4
SW-620 = system: SW-620
UO-31 = system: UO-31
SR = system: SR
SN12C = system: SN12C
SF-268 = system: SF-268
MDA-MB-231 = system: MDA-MB-231
Malme-3M = system: Malme-3M
HL-60 = system: HL-60
EKVX = system: EKVX
MDA-N = system: MDA-N
HT-29 = system: HT-29
OVCAR-8 = system: OVCAR-8

Structure (SMILES)	GI50 (HOP-62)	GI50 (Hs-578T)	GI50 (T47D)	GI50 (LOX IMVI)	GI50 (NCI-H460)	GI50 (A549)	GI50 (CCRF-CEM)	GI50 (MOLT-4)	GI50 (SW-620)	GI50 (UO-31)	GI50 (SR)	GI50 (SN12C)	GI50 (SF-268)	GI50 (MDA-MB-231)	GI50 (Malme-3M)	GI50 (HL-60)	GI50 (EKVX)	GI50 (MDA-N)	GI50 (HT-29)	GI50 (OVCAR-8)
O=[N+]([O-])c1ccccc1OCCOc1ccccc1[N+](=O)[O-]	> 100 µM (inactive)	> 100 µM (inactive)	> 100 µM (inactive)	> 100 µM (inactive)	> 100 µM (inactive)	> 100 µM (inactive)	> 100 µM (inactive)	> 100 µM (inactive)	> 100 µM (inactive)	> 100 µM (inactive)	> 100 µM (inactive)	> 100 µM (inactive)	> 100 µM (inactive)	96.2 µM (inactive)	> 100 µM (inactive)	> 100 µM (inactive)	> 100 µM (inactive)	> 100 µM (inactive)	> 100 µM (inactive)	64.6 µM (inactive)
COC(=O)C1=C(C(=O)OC)C2OC1c1cc3ccccc3cc12	17.6 µM (inactive)	18.2 µM (inactive)	2.61 µM (inactive)	15.2 µM (inactive)	22.2 µM (inactive)	18.7 µM (inactive)	1.69 µM (inactive)	1.54 µM (inactive)	1.96 µM (inactive)	1.54 µM (inactive)	1.88 µM (inactive)	16.4 µM (inactive)	18.3 µM (inactive)	17.7 µM (inactive)	2.5 µM (inactive)	0.0841 µM (active)	6.07 µM (inactive)	6.62 µM (inactive)	6.3 µM (inactive)	4.49 µM (inactive)
O=[N+]([O-])c1cc2ccc(N(CCO)CCO)nc2nc1N(CCO)CCO	> 100 µM (inactive)	> 100 µM (inactive)	> 100 µM (inactive)	> 100 µM (inactive)	> 100 µM (inactive)	> 100 µM (inactive)	> 100 µM (inactive)	> 100 µM (inactive)	> 100 µM (inactive)	> 100 µM (inactive)	46.2 µM (inactive)	> 100 µM (inactive)	> 100 µM (inactive)	> 100 µM (inactive)	> 100 µM (inactive)	> 100 µM (inactive)	> 100 µM (inactive)	> 100 µM (inactive)	> 100 µM (inactive)	> 100 µM (inactive)
O=c1[nH]nc(Cc2ccccc2)n1Nc1ccccc1	> 100 µM (inactive)	> 100 µM (inactive)	> 10 µM (inactive)	> 100 µM (inactive)	> 100 µM (inactive)	> 100 µM (inactive)	> 100 µM (inactive)	> 100 µM (inactive)	> 100 µM (inactive)	> 100 µM (inactive)	> 100 µM (inactive)	> 100 µM (inactive)	52 µM (inactive)	> 100 µM (inactive)	> 100 µM (inactive)	> 100 µM (inactive)	> 100 µM (inactive)	> 100 µM (inactive)	> 100 µM (inactive)	> 100 µM (inactive)
CCOC(=O)CN1CC(C2=C(O)CN(CC(=O)OCC)C2=O)=CC1=O	> 100 µM (inactive)	> 100 µM (inactive)	> 100 µM (inactive)	> 100 µM (inactive)	> 100 µM (inactive)	> 100 µM (inactive)	> 100 µM (inactive)	> 100 µM (inactive)	> 100 µM (inactive)	> 100 µM (inactive)	> 100 µM (inactive)	> 100 µM (inactive)	> 100 µM (inactive)	> 100 µM (inactive)	> 100 µM (inactive)	> 100 µM (inactive)	> 100 µM (inactive)	> 100 µM (inactive)	> 100 µM (inactive)	> 100 µM (inactive)
CNC(=O)N(C)/N=N/CCCl	> 100 µM (inactive)	> 100 µM (inactive)	> 100 µM (inactive)	> 100 µM (inactive)	> 100 µM (inactive)	> 100 µM (inactive)	> 100 µM (inactive)	> 100 µM (inactive)	> 100 µM (inactive)	> 100 µM (inactive)	> 100 µM (inactive)	> 100 µM (inactive)	> 100 µM (inactive)	> 100 µM (inactive)	> 100 µM (inactive)	> 100 µM (inactive)	> 100 µM (inactive)	> 100 µM (inactive)	> 100 µM (inactive)	> 100 µM (inactive)
Cc1ccc(-n2cnc(C(=N)C#N)c2N)cc1	> 100 µM (inactive)	> 100 µM (inactive)	> 100 µM (inactive)	> 100 µM (inactive)	> 100 µM (inactive)	> 100 µM (inactive)	> 100 µM (inactive)	> 100 µM (inactive)	> 100 µM (inactive)	> 100 µM (inactive)	> 100 µM (inactive)	> 100 µM (inactive)	> 100 µM (inactive)	> 100 µM (inactive)	> 100 µM (inactive)	> 100 µM (inactive)	> 100 µM (inactive)	> 100 µM (inactive)	> 100 µM (inactive)	> 100 µM (inactive)
C=CCNC1=C2C[C@@H](C)C[C@@H](OC)[C@H](OC(=O)CN(C)C)[C@H](C)/C=C(\C)[C@@H](OC(N)=O)[C@H](OC)/C=C\C=C(/C)C(=O)NC(=CC1=O)C2=O	0.0604 µM (active)	13.3 µM (inactive)	4.82 µM (inactive)	0.0641 µM (active)	0.0479 µM (active)	0.0562 µM (active)	3.08 µM (inactive)	1.43 µM (inactive)	0.0228 µM (active)	0.757 µM (active)	< 0.0113 µM (active)	0.0689 µM (active)	2.54 µM (inactive)	2.56 µM (inactive)	0.0409 µM (active)	0.406 µM (active)	1.28 µM (inactive)	0.0281 µM (active)	< 0.01 µM (active)	0.163 µM (active)
C=C1C(=O)O[C@@H]2C[C@@]3(C)CCCC(=C)[C@@H]3C[C@H]12.C=C1C(=O)O[C@@H]2C[C@@]3(C)CCC[C@H](C)C3=C[C@H]12	2.3 µM (inactive)	2.92 µM (inactive)	1.09 µM (active)	2.9 µM (inactive)	3.75 µM (inactive)	5.12 µM (inactive)	1.51 µM (inactive)	1.34 µM (inactive)	1.64 µM (inactive)	1.59 µM (inactive)	0.494 µM (active)	1.69 µM (inactive)	2.55 µM (inactive)	2.38 µM (inactive)	0.731 µM (active)	1.99 µM (inactive)	4.78 µM (inactive)	2.04 µM (inactive)	2.12 µM (inactive)	1.6 µM (inactive)
COC(=O)C1=C(C)NC(CF)=C(C(=O)OC)C1c1cccc2c(=O)c3ccccc3oc12 (stereo not given)	11.7 µM (inactive)	9.62 µM (inactive)	24.3 µM (inactive)	7.4 µM (inactive)	4.48 µM (inactive)	9.46 µM (inactive)	5.28 µM (inactive)	5.89 µM (inactive)	1.73 µM (inactive)	6.59 µM (inactive)	9.4 µM (inactive)	4.63 µM (inactive)	18.3 µM (inactive)	4.74 µM (inactive)	11.2 µM (inactive)	4.65 µM (inactive)	19.1 µM (inactive)	1.92 µM (inactive)	3.58 µM (inactive)	19.9 µM (inactive)
Cc1ccc(-c2nc(C)c(C(=O)Nc3ccc(Cl)cc3)s2)cc1	13.4 µM (inactive)	21.8 µM (inactive)	> 100 µM (inactive)	31.1 µM (inactive)	29.5 µM (inactive)	61.7 µM (inactive)	> 100 µM (inactive)	> 100 µM (inactive)	41.7 µM (inactive)	18.8 µM (inactive)	> 100 µM (inactive)	31.4 µM (inactive)	26.5 µM (inactive)	30.3 µM (inactive)	36.4 µM (inactive)	> 100 µM (inactive)	37.8 µM (inactive)	> 100 µM (inactive)	> 100 µM (inactive)	18.8 µM (inactive)
O=C(NCCN1C(=O)CN=C(c2ccc(Cl)cc2)c2cc(Cl)ccc21)OCc1ccccc1	19.8 µM (inactive)	17.4 µM (inactive)	30.8 µM (inactive)	17.4 µM (inactive)	13.4 µM (inactive)	10.6 µM (inactive)	11.7 µM (inactive)	0.255 µM (active)	13.6 µM (inactive)	10.9 µM (inactive)	9.48 µM (inactive)	14.3 µM (inactive)	12.4 µM (inactive)	14.8 µM (inactive)	16.8 µM (inactive)	10.1 µM (inactive)	20.7 µM (inactive)	16.5 µM (inactive)	11.8 µM (inactive)	16.3 µM (inactive)
COC(=O)C1(Cc2ccc3c(c2)CCC3)Cc2ccccc2C1O (stereo not given)	22.9 µM (inactive)	20 µM (inactive)	22.6 µM (inactive)	15.1 µM (inactive)	18.6 µM (inactive)	20.5 µM (inactive)	13.1 µM (inactive)	8.22 µM (inactive)	17.3 µM (inactive)	15.7 µM (inactive)	26.4 µM (inactive)	15.2 µM (inactive)	19.4 µM (inactive)	21.3 µM (inactive)	18.1 µM (inactive)	37.5 µM (inactive)	22.8 µM (inactive)	3.36 µM (inactive)	16.7 µM (inactive)	18.6 µM (inactive)
O=[N+]([O-])C(=C(N1CCCCC1)N1CCCCC1)/C(Cl)=C(\Cl)Br	44.7 µM (inactive)	0.871 µM (active)	25.2 µM (inactive)	16.1 µM (inactive)	21 µM (inactive)	32.7 µM (inactive)	11.1 µM (inactive)	18.7 µM (inactive)	15.6 µM (inactive)	34.5 µM (inactive)	5.93 µM (inactive)	29.7 µM (inactive)	29.6 µM (inactive)	27.2 µM (inactive)	28.2 µM (inactive)	15.2 µM (inactive)	16.4 µM (inactive)	29.2 µM (inactive)	29.7 µM (inactive)	16.4 µM (inactive)
